Measurements taken from paper PMC7802075 (ACS Infectious Diseases, 2020).
Entries after “also recorded” stand apart in the source; their conditions may differ. Where two headings read alike, the source gives them in different places.

What was measured:
[1] = molecular target: T1, LmjIPCS (inositol phosphorylceramide synthase from L. major) (Leishmania major, UniProt E9AFX2); test: biochemical; format: biochemical; design: inhibition: dose or concentration left out as unconfirmed; conditions: for inhibition: read-out: inhibition LmjIPCS
T1 sequence (E9AFX2 1-338): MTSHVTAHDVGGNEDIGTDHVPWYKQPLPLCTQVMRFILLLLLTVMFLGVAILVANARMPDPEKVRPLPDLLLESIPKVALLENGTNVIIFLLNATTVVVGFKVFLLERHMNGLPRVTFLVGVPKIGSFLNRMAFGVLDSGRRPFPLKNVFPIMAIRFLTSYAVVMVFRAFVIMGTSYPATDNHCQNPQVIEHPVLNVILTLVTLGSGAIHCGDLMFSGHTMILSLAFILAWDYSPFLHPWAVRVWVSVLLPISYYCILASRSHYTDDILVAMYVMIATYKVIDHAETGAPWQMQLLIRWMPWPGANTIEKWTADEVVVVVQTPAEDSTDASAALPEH

[2] = tested on: L. major (FV1) promastigotes; test: Antipromastigote resazurin assay, L. major (FV1) wild type; format: cell-based, Leishmania major; conditions: for inhibition of growth at 10000 µM / EC50: Leishmania major
[3] = tested on: clemastine fumarate-resistant L. major promastigotes (cl.C and cl.D); format: cell-based, Leishmania major
[4] = tested on: Leishmania species (L. major, L. amazonensis, L. donovani, L. infantum); test: Dose response positive control, each Leishmania species; format: cell-based, Leishmania spp.; conditions: for each species
Protocol: […]. Resazurin solution (10 μL) was then added and the plate, incubated at 26 °C for 4 h prior to measurement using a fluorescence plate reader (Ex555/Em585). EC50 values were calculated using sigmoidal regression analysis (GraphPad Prism).
[…]. After 24 h of infection, serial dilutions of the test compounds in medium were added and the slides were incubated at 37 °C and 5% CO2 for 5 days (L. major) or 2 days (L. amazonensis). Amphotericin B and miltefosine were used as controls. At the end, cells were fixed with methanol and stained with Giemsa solution, and the intracelular amastigotes were counted using a light microscope. Results were expressed as the percentage reduction of intracellular amastigotes (compared with untreated control wells). EC50 values were calculated using sigmoidal regression analysis (GraphPad Prism).

[5] = tested on: L. major ΔLmjLCB2 mutant promastigotes; test: microbe, parasite or virus in culture; format: cell-based; conditions: Leishmania major; sphingolipid-free mutant, 48 h; read-out: EC50 ΔLmjLCB2 parasites
[6] = tested on: L. major add-back (AB) line promastigotes [pXNEO LmLCB2]; test: microbe, parasite or virus in culture; format: cell-based; conditions: Leishmania major, 48 h
[7] = NINDS set screen, single concentration printed as 20mM
[8] = NINDS set screen against L. major promastigotes, single concentration printed as 10mM
[9] = L. major promastigotes, dose response
[10] = secondary dose response, L. major (FV1), read-out: EC50 against L. major promastigotes
[11] = L. major promastigotes, secondary dose response

CC(C)=CCc1c2c(c3occ(-c4ccc(O)c(O)c4)c(=O)c3c1O)C=CC(C)(C)O2 [POMIFERIN]
20mM inhibition LmjIPCS [1, 7]: 73%
10mM inhibition L. major [2, 8]: <5%

CCCCOc1ccc(OCCCN2CCOCC2)cc1 [PRAMOXINE]
20mM inhibition LmjIPCS [1]: 71%
10mM inhibition L. major [2, 8]: <5%

CN(C)CCCN1c2ccccc2Sc2ccccc21 [PROMAZINE]
20mM inhibition LmjIPCS [1]: 77%
10mM inhibition L. major [2, 8]: <5%

CC(CN1c2ccccc2Sc2ccccc21)N(C)C (stereo not drawn) [PROMETHAZINE]
20mM inhibition LmjIPCS [1, 7]: 78%
10mM inhibition L. major [2, 8]: <5%

CCCc1cc(=O)[nH]c(=S)[nH]1 [PROPYLTHIOURACIL]
20mM inhibition LmjIPCS [1]: 73%
10mM inhibition L. major [2]: <5%

C=CC1=C(C)c2cc3[nH]c(cc4nc(cc5[nH]c(cc1n2)c(C)c5CCC(=O)O)C(CCC(=O)O)=C4C)c(C)c3C=C [PROTOPORPHYRIN IX]
20mM inhibition LmjIPCS [1, 7]: 77%
10mM inhibition L. major [2, 8]: <5%

CCc1nc(N)nc(N)c1-c1ccc(Cl)cc1 [PYRIMETHAMINE]
20mM inhibition LmjIPCS [1, 7]: 77%
10mM inhibition L. major [2, 8]: <5%

COC1=C[C@@H](C)[C@@H]2C[C@H]3OC(=O)C[C@H]4C(C)=C(OC)C(=O)[C@H]([C@@]2(C)C1=O)[C@@]34C [QUASSIN]
20mM inhibition LmjIPCS [1, 7]: 70%
inhibition of growth at 10000 µM [2, 8]: < 5%

C=C[C@H]1C[N@@]2CC[C@H]1C[C@H]2[C@H](O)c1ccnc2ccc(OC)cc12 [QUININE]
20mM inhibition LmjIPCS [1]: 70%
10mM inhibition L. major [2, 8]: <5%

CC(C)CC(N(C)C)C1(c2ccc(Cl)cc2)CCC1 (stereo not drawn) [SIBUTRAMINE]
20mM inhibition LmjIPCS [1]: 74%
10mM inhibition L. major [2, 8]: <5%

[H]/N=C(/NCCCCC)N/N=C/c1c[nH]c2ccc(OC)cc12 [TEGASEROD]
20mM inhibition LmjIPCS [1, 7]: 71%
inhibition of growth at 10000 µM [2, 8]: < 5%

CC(CN(C)C)CN1c2ccccc2Sc2ccccc21 (stereo not drawn) [TRIMEPRAZINE]
20mM inhibition LmjIPCS [1]: 71%
10mM inhibition L. major [2, 8]: <5%

CCOC(=O)C1=C(COCCN)NC(C)=C(C(=O)OC)C1c1ccccc1Cl (stereo not drawn) [amlodipine 2, amlodipine, reference compound]
20mM inhibition LmjIPCS [1]: 80%
IC50 [1]: 3 µM
LmjIPCS inhibition ([1]; secondary dose response): confirmed
ED50 vs L. major [2, 9]: 1910 µM
EC50 [2, 10]: > 1 µM
10mM inhibition L. major [2, 8]: 62%

C[C@@H]1[C@H](O)[C@@H](C)/C=C/C=C/C=C/C=C/C=C/C=C/C=C/[C@H](O[C@@H]2O[C@H](C)[C@@H](O)[C@H](N)[C@@H]2O)C[C@@H]2O[C@](O)(C[C@@H](O)C[C@@H](O)[C@H](O)CC[C@@H](O)C[C@@H](O)CC(=O)O[C@H]1C)C[C@H](O)[C@H]2C(=O)O [amphotericin B]
20mM inhibition LmjIPCS [1]: 41%
cross-resistance in clemastine fumarate-resistant L. major clones [3]: no evidence for cross-resistance
EC50 [4]: 0.027 ± 0.003 µM

CN(C)CCCN1c2ccccc2Sc2ccc(Cl)cc21 [chlorpromazine 3, chlorpromazine, reference compound]
20mM inhibition LmjIPCS [1]: 88%
IC50 [1]: 4.7 µM
LmjIPCS inhibition ([1]; secondary dose response): confirmed
ED50 vs L. major [2, 9]: 9800 µM
EC50 [2, 10]: > 1 µM
10mM inhibition L. major [2, 8]: 76%

C[C@@H]1C[C@@H]([C@H](O)CC2CC(=O)NC(=O)C2)C(=O)[C@@H](C)C1 [cycloheximide, reference compound]
inhibition at 20000 µM ([1]; read-out: 20mM inhibition LmjIPCS): 9%
EC50 ([2]; FV1 WT, 48 h, compared with mutant lines, read-out: EC50 wild type L. major promastigotes): 0.02 µM
EC50 [5]: 0.02 µM
EC50 [6]: 0.02 µM

CC(NCCC(c1ccccc1)c1ccccc1)c1ccccc1 (stereo not drawn) [fendiline 6, fendiline, reference compound]
IC50 [1]: 4.22 µM
20mM inhibition LmjIPCS [1, 7]: 71%
LmjIPCS inhibition ([1]; secondary dose response): confirmed
ED50 vs L. major [2, 9]: 7640 µM
EC50 [2, 10]: > 1 µM
10mM inhibition L. major [2, 8]: 74%

CCCCCCCCCCCCCCCCOP(=O)([O-])OCC[N+](C)(C)C [miltefosine, reference compound]
inhibition [1]: 3.35%
cross-resistance in clemastine fumarate-resistant L. major clones [3]: no evidence for cross-resistance

N=C1C=CC(=C(c2ccc(N)cc2)c2ccc(N)cc2)C=C1 [pararosaniline 8, pararosaniline]
20mM inhibition LmjIPCS [1]: 78%
IC50 ([1]; dose response, read-out: IC50 vs LmjIPCS): > 100 µM
IC50 against LmjIPCS ([1]; secondary dose response, commercially sourced samples): could not be determined
ED50 vs L. major [2, 9]: 9780 µM
antileishmanial activity [2, 11]: poor antileishmanial activity
10mM inhibition L. major [2, 8]: 75%

NC[C@@H]1O[C@H](O[C@H]2[C@@H](O)[C@H](O[C@@H]3[C@@H](O)[C@H](N)C[C@H](N)[C@H]3O[C@H]3O[C@H](CO)[C@@H](O)[C@H](O)[C@H]3N)O[C@@H]2CO)[C@H](N)[C@@H](O)[C@@H]1O [paromomycin, reference compound]
inhibition [1]: -17%
cross-resistance in clemastine fumarate-resistant L. major clones [3]: no evidence for cross-resistance

N=C(N)c1ccc(OCCCCCOc2ccc(C(=N)N)cc2)cc1 [pentamidine 9, pentamidine, reference compound]
10mM inhibition L. major [2]: 59%
ED50 vs L. major [2]: 2050 µM
cross-resistance in clemastine fumarate-resistant L. major clones [3]: no evidence for cross-resistance; also recorded: statistically significant hypersensitivity

O=c1[nH]c2ccccc2n1C1CCN(CCCC(c2ccc(F)cc2)c2ccc(F)cc2)CC1 [pimozide 10, pimozide, reference compound]
20mM inhibition LmjIPCS [1]: 77%
IC50 [1]: 4.14 µM
LmjIPCS inhibition ([1]; secondary dose response): confirmed
ED50 vs L. major [2, 9]: 22900 µM
EC50 [2, 10]: > 1 µM
10mM inhibition L. major [2, 8]: 56%

Cc1nnc(NS(=O)(=O)c2ccc(N)cc2)s1 [sulfamethizole 14, sulfamethizole, reference compound]
20mM inhibition LmjIPCS [1]: 77%
IC50 [1]: > 100 µM
IC50 against LmjIPCS [1]: could not be determined
ED50 vs L. major [2, 9]: 39600 µM
antileishmanial activity [2, 11]: poor antileishmanial activity
10mM inhibition L. major [2, 8]: 68%

CCCCCCCCNC(C)C(O)c1ccc(SC(C)C)cc1 (stereo not drawn) [suloctidil 15, suloctidil, reference compound]
IC50 [1]: 3.67 µM
20mM inhibition LmjIPCS [1, 7]: 81%
LmjIPCS inhibition ([1]; secondary dose response): confirmed
ED50 vs L. major [2, 9]: 1330 µM
EC50 [2, 10]: > 1 µM
10mM inhibition L. major [2, 8]: 74%

CN1CCN(CCCN2c3ccccc3Sc3ccc(C(F)(F)F)cc32)CC1 [trifluoperazine 16, trifluoperazine, reference compound]
20mM inhibition LmjIPCS [1]: 86%
IC50 [1]: 5.03 µM
LmjIPCS inhibition ([1]; secondary dose response): confirmed
ED50 vs L. major [2, 9]: 7170 µM
EC50 [2, 10]: > 1 µM
10mM inhibition L. major [2, 8]: 67%

GINKGOLIC ACID
20mM inhibition LmjIPCS [1]: 73%
10mM inhibition L. major [2, 8]: <5%

TANNIC ACID
20mM inhibition LmjIPCS [1]: 91%
10mM inhibition L. major [2, 8]: <5%
